Results as given in patent US20240400544A1, “N-(HYDROXYALKYL (HETERO)ARYL) TETRAHYDROFURAN CARBOXAMIDE ANALOGS AS MODULATORS OF SODIUM CHANNELS” (VERTEX PHARMACEUTICALS INCORPORATED, priority 2021, published 2024).

Molecular target: human NaV 1.8 (Homo sapiens, UniProt Q9Y5Y9)
Experiment: E-VIPR Assay Detecting and Measuring NaV Inhibition Properties
Assay type: cell-based
Conditions: HEK cells expressing a truncated form of human NaV 1.8 with full channel activity; electrical stimulation, membrane potential FRET dyes; read-out: measured IC50 value in the E-VIPR Assay
Text: E-VIPR Assay Detecting and Measuring NaV Inhibition Properties
Sodium ion channels are voltage-dependent proteins that can be activated by inducing membrane voltage changes by applying electric fields. The electrical stimulation instrument and methods of use, referred to as E-VIPR, are described in International Publication No. WO 2002/008748 A3 and C.-J. Huang et al. Characterization of voltage-gated sodium channel blockers by electrical stimulation and fluorescence detection of membrane potential, 24 Nature Biotech. 439-46 (2006), both of which are incorporated by reference in their entirety. The instrument comprises a microtiter plate handler, an optical system for exciting the coumarin dye while simultaneously recording the coumarin and oxonol emissions, a waveform generator, a current- or voltage-controlled amplifier, and parallel electrode pairs that are inserted into assay plate wells. Under integrated computer control, this instrument passes user-programmed electrical stimulus protocols to cells within the wells of the microtiter plate.
16-20 hours prior to running the assay on E-VIPR, HEK cells expressing a truncated form of human NaV 1.8 with full channel activity were seeded into microtiter 384-well plates, pre-coated with matrigel, at a density of 25,000 cells per well. 2.5-5% KIR2.1 Bacmam virus was added to the final cell suspension before seeding into cell plates. HEK cells were grown in Dulbecco's Modified Eagle's Medium (DMEM) supplemented with 10% FBS (Fetal Bovine Serum, qualified; Sigma #F4135), 1% NEAA (Non-Essential Amino Acids, Gibco #11140), 1% HEPES (Gibco #15630), 1% Pen-Strep (Penicillin-Streptomycin; Gibco #15140) and 5 μg/ml Blasticidin (Gibco #R210-01). Cells were expanded in vented cap cell culture flasks, with 90-95% humidity and 5% CO2.
2.5-5% KIR 2.1 Bacmam virus (produced in-house), prepared as described in Section 3.3 of J. A. Fornwald et al., Gene Expression in Mammalian Cells Using BacMam, a Modified Baculovirus System, 1350 Methods in Molecular Biology 95-116 (2016), the entire contents of which are incorporated by reference. The concentration used can be dependent on viral titer of each batch.
5 mM DiSBAC6(3), a voltage sensitive oxonol acceptor (CAS number 169211-44-3; 5-[3-(1,3-dihexylhexahydro-4,6-dioxo-2-thioxo-5-pyrimidinyl)-2-propen-1-ylidene]-1,3-dihexyldihydro-2-thioxo-4,6(1H,5H)-pyrimidinedione), in dry DMSO. The preparation of DiSBAC6(3) is analogous to that of DiSBAC4(3) as described in Voltage Sensing by Fluorescence Resonance Energy Transfer in Single Cells, Gonzalez, J. E. and Tsien, R. Y. (1995) Biophys. J. 69, 1272-1280.
5 mM CC2-DMPE, a commercially available membrane-bound coumarin phospholipid FRET donor (ThermoFisher Scientific catalog number K1017, CAS number 393782-57-5; tetradecanoic acid, 1,1′-[(1R)-1-[8-(6-chloro-7-hydroxy-2-oxo-2H-1-benzopyran-3-yl)-3-hydroxy-3-oxido-8-oxo-2,4-dioxa-7-aza-3-phosphaoct-1-yl]-1,2-ethanediyl] ester) was prepared in dry DMSO. See also, Improved indicators of cell membrane potential that use fluorescence resonance energy transfer, Gonzalez, J. E. and Tsien, R. Y. (1997) Chem. Biol. 4, 269-277.
Voltage Assay Background Suppression Compound (VABSC-1) is prepared in H2O (89-363 mM, range used to maintain solubility)
Human Serum (HS, Millipore #S1P1-01KL, or Sigma SLBR5469V and SLBR5470V as a 50%/50% mixture, for 25% assay final concentration)
• Sodium Chloride 160 mM (9.35 g/L), Potassium Chloride, 4.5 mM (0.335 g/L), Glucose • 10 mM (1.8 g/L), Magnesium Chloride (Anhydrous) 1 mM (0.095 g/L), Calcium • Chloride 2 mM (0.222 g/L), HEPES 10 mM (2.38 g/L) in water.
• Sodium Chloride 96 mM (5.61 g/L), Potassium Chloride 4.5 mM (0.335 g/L), • Tetramethylammonium (TMA)-Cl 64 mM (7.01 g/L), Glucose 10 mM (1.8 g/L), • Magnesium Chloride (Anhydrous) 1 mM (0.095 g/L), Calcium Chloride 2 mM (0.222 • g/L) HEPES 10 mM (2.38 g/L) in water. […]

Chain of human NaV 1.8 (Q9Y5Y9 126-1722 limits assumed): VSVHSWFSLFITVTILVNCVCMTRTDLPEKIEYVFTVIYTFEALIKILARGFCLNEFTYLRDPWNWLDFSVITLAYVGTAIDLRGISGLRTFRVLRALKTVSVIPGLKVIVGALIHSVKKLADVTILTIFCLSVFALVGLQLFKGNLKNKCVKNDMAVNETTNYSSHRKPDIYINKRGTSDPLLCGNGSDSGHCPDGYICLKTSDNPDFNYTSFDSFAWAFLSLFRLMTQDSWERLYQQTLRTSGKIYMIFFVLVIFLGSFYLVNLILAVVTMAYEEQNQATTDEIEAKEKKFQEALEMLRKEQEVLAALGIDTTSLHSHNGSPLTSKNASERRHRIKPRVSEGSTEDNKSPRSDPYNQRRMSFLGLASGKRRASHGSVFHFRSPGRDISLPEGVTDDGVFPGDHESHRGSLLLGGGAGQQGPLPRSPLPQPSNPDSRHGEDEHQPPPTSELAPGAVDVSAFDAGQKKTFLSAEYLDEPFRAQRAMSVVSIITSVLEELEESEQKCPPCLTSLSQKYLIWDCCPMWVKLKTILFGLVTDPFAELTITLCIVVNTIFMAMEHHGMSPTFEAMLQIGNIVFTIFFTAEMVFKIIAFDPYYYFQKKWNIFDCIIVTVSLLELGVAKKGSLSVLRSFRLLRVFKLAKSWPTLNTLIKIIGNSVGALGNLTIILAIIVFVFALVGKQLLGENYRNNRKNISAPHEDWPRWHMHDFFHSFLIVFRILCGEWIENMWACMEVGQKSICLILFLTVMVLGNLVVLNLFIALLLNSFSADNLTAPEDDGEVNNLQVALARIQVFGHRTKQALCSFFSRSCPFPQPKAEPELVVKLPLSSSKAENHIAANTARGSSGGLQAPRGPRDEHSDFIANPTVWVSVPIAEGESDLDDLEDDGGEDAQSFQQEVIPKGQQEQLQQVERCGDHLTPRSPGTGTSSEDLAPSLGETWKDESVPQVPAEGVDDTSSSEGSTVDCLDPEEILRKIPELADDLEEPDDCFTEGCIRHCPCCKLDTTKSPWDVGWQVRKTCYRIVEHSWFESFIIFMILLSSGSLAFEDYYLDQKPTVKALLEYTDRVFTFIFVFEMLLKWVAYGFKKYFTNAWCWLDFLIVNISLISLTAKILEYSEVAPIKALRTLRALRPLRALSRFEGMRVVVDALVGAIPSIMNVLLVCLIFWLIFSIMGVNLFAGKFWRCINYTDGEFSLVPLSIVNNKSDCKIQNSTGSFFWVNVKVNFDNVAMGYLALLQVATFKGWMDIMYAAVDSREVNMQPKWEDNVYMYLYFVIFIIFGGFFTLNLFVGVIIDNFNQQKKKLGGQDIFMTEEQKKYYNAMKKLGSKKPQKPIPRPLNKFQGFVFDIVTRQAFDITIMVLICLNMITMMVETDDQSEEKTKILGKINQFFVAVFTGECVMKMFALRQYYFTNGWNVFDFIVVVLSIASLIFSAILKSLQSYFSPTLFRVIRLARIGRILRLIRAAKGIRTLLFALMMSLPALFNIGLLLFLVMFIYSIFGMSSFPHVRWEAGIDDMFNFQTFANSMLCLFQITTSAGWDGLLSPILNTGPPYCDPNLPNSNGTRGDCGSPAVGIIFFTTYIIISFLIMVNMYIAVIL

SMILES | IC50 [nM]
CO[C@H](C)COc1c([C@H]2[C@H](C(=O)Nc3ccc(CO)nc3)O[C@@](C)(C(F)(F)F)[C@H]2C)ccc(F)c1F [Compound 6, (2R,3S,4S,5R)-3-(3,4-difluoro-2-((R)-2-methoxypropoxy)phenyl)-N-(6-(hydroxymethyl)pyridin-3-yl)-4,5-dimethyl-5-(trifluoromethyl)tetrahydrofuran-2-carboxamide] | 10 to 100
COCCOc1c([C@H]2[C@@H](C)[C@@](C)(C(F)(F)F)O[C@H]2C(=O)Nc2cnc(C(O)CO)nc2)ccc(F)c1C (single isomer, unassigned) [Compound 15] | ≥ 1000
COc1c([C@H]2[C@H](C(=O)Nc3cnc4c(c3)OCC4O)O[C@@](C)(C(F)(F)F)[C@H]2C)ccc(F)c1F (single isomer, unassigned) [Compound 2, rel-(2R*,3S*,4S*,5R*)-3-(3,4-difluoro-2-methoxyphenyl)-N-(3-hydroxy-2,3-dihydrofuro[3,2-b]pyridin-6-yl)-4,5-dimethyl-5-(trifluoromethyl)tetrahydrofuran-2-carboxamide] | 100 to 1000
CO[C@@H](C)COc1c([C@H]2[C@H](C(=O)Nc3ccc(CO)nc3)O[C@@](C)(C(F)(F)F)[C@H]2C)ccc(F)c1F [Compound 5, (2R,3S,4S,5R)-3-(3,4-difluoro-2-((S)-2-methoxypropoxy)phenyl)-N-(6-(hydroxymethyl)pyridin-3-yl)-4,5-dimethyl-5-(trifluoromethyl)tetrahydrofuran-2-carboxamide] | 10 to 100
COCCOc1c([C@H]2[C@@H](C(=O)Nc3cnc(C(O)CO)nc3)O[C@@](C)(C(F)(F)F)[C@H]2C)ccc(F)c1C (single isomer, unassigned) [Compound 16] | ≥ 1000
COc1c([C@H]2[C@H](C(=O)Nc3cnc4c(c3)CCC4O)O[C@@](C)(C(F)(F)F)[C@H]2C)ccc(F)c1F (single isomer, unassigned) [Compound 4, rel-(2R*,3S*,4S*,5R*)-3-(3,4-difluoro-2-methoxyphenyl)-N-(7-hydroxy-6,7-dihydro-5H-cyclopenta[b]pyridin-3-yl)-4,5-dimethyl-5-(trifluoromethyl)tetrahydrofuran-2-carboxamide] | 10 to 100
COCCOc1c([C@H]2[C@H](C(=O)Nc3ccc(C(O)COC)nc3)O[C@@](C)(C(F)(F)F)[C@H]2C)ccc(F)c1F (single isomer, unassigned) [Compound 21, rel-(2R*,3S*,4S*,5R*)-3-(3,4-difluoro-2-(2-methoxyethoxy)phenyl)-N-(6-(1-hydroxy-2-methoxyethyl)pyridin-3-yl)-4,5-dimethyl-5-(trifluoromethyl)tetrahydrofuran-2-carboxamide] | 10 to 100
COc1c([C@H]2[C@H](C(=O)Nc3cnc4c(c3)OCC4O)O[C@@](C)(C(F)(F)F)[C@H]2C)ccc(F)c1F (single isomer, unassigned) [Compound 1, rel-(2R*,3S*,4S*,5R*)-3-(3,4-difluoro-2-methoxyphenyl)-N-(3-hydroxy-2,3-dihydrofuro[3,2-b]pyridin-6-yl)-4,5-dimethyl-5-(trifluoromethyl)tetrahydrofuran-2-carboxamide] | 10 to 100
COCCOc1c([C@@H]2[C@@H](C(=O)Nc3cnc(C(O)CO)nc3)O[C@](C)(C(F)(F)F)[C@@H]2C)ccc(F)c1C (single isomer, unassigned) [Compound 13] | ≥ 1000
C[C@H]1[C@@H](c2ccc(F)c(F)c2OCCN2CCOCC2)[C@H](C(=O)Nc2ccc([C@@H](O)CO)nc2)O[C@@]1(C)C(F)(F)F [Compound 11, (2R,3S,4S,5R)-3-(3,4-difluoro-2-(2-morpholinoethoxy)phenyl)-N-(6-((R)-1,2-dihydroxyethyl)pyridin-3-yl)-4,5-dimethyl-5-(trifluoromethyl)tetrahydrofuran-2-carboxamide] | 10 to 100
COCCOc1c([C@H]2[C@H](C(=O)Nc3ccc([C@@H](O)CO)nc3)O[C@@](C)(C(F)(F)F)[C@H]2C)ccc(F)c1F [Compound 10, (2R,3S,4S,5R)-3-(3,4-difluoro-2-(2-methoxyethoxy)phenyl)-N-(6-((R)-1,2-dihydroxyethyl)pyridin-3-yl)-4,5-dimethyl-5-(trifluoromethyl)tetrahydrofuran-2-carboxamide] | < 10
